In patent US20110251230A1, “THERAPEUTICS FOR NEUROLOGICAL DISORDERS” (UNIVERSITY OF SHEFFIELD, priority 2008, published 2011):
Structures can show the parent of a compound that is named as a salt. Where two headings read alike, the source gives them in different places.

Tests used:
[1] = system: C6 (rat) astrocytic line; test: C6 oxidative stress assay (serum withdrawal, DCF); settings: for Lowest dose with toxicity: C6; for IC50: C6, 24 h pre-treatment, serum withdrawal, DCF; for Maximal % reduction in Oxidative stress: C6, DCF fluorescence
Protocol: (§1) A simple oxidative stress assay was used to determine whether preconditioning with NRF2-ARE inducing drugs could protect against a subsequent oxidative stress insult (serum withdrawal). The NSC34, C6 and 1321N1 cells were plated in 96 well tissue culture plates to achieve 30% confluency. […] Media was then replaced with serum free, phenol free media for 5 hrs. […] Cell survival assay was then performed on the cells as protection is measured as % reduction in DCF signal, therefore data points were excluded where a decrease in cell number was measured.
(§2) Briefly methylthiazolyldiphenyl-tetrazolium bromide (MTT) was added to the cells and a blank well to a final concentration 0.5 mg/ml and incubated at 37° C. for 1-3 hrs depending on the cell line used.

[2] = system: NRF2-ARE pathway in the CHO 4× ARE-TK cell line; test: ARE reporter assay in CHO 4×ARE-TK-GFP cell line (GFP induction, EthD1 toxicity); settings: for maximal fold induction: read-out: Average fold GFP induction at maximal response
Protocol: Chinese Hamster Ovary (CHO), NSC34 mouse motor neuronal cells, C6 (rat) and 1321N1 (human) astrocytic lines were routinely maintained in DMEM supplemented with 10% FBS and penicillin/streptomycin. […] These plasmids were transfected into CHO, C6 and 1321N1 cell lines using Lipofectamine 2000 (Invitrogen) and following 10-14 days of selection in 0.5 mg/ml G418 they were expanded and selected for basal eGFP expression using fluorescence activated cell sorting (BD, FACSAria) with two sequential cell sorts for each cell line. These mixed populations of stable transfectants with basal eGFP expression were used in subsequent assays and designated 4×ARE-TK-GFP for the ARE containing line and TK-GFP for the control cell line. […]
Confluent cultures of 4×ARE-TK-GFP CHO or TK-GFP CHO expressing cells in 96 or 384-well tissue-culture plates were treated with drug (0.01-100 µM in triplicate) or vehicle (0.1-1% DMSO) in FCS-free DMEM in triplicate for 24 hours. The media was removed and replaced with the same volume of PBS containing 0.3 μM EthD1. […] Non-linear regression was used to fit a sigmoidal dose-response curve on a semi-Log plot to calculate the EC50 using GraphPad Prism (GraphPad Software). The reporter assay was conducted in a similar fashion in C6 and 1321N1 astrocyte cell lines stably transfected with the 4×ARE-TK-GFP and TK-GFP constructs except that Eth D1 was added directly in the media and read prior to washing the cells once and reading the […] signal. […]
The compounds were applied in triplicate to confluent cells in 96 well plates in serum free medium for 24 hours and the induction of GFP measured in a fluorescence plate reader. […]

[3] = system: NSC34 mouse motor neuronal cells; test: NSC34 oxidative stress assay (serum withdrawal, DCF); settings: for Lowest dose with toxicity: NSC34; for Maximal % reduction in Oxidative stress: NSC34, DCF fluorescence, negative = pro-oxidant
Protocol: as §1, §2

[4] = system: 1321N1 (human) astrocytic line; test: 1321N1 oxidative stress assay (serum withdrawal, DCF); settings: for Lowest dose with toxicity: 1321N1; for IC50: 1321N1, 24 h pre-treatment, serum withdrawal, DCF; for Maximal % reduction in Oxidative stress: 1321N1, DCF fluorescence
Protocol: as §1, §2

[5] = read-out: Average EC50, CHO 4×ARE-TK-GFP, GFP induction, 24 h

| Compound | Lowest dose with toxicity [1] | Lowest dose with toxicity [2] | maximal fold induction ([2]; Cricetulus griseus, 24 h) | Lowest dose with toxicity [3] | Lowest dose with toxicity [4] | IC50 [1] | Maximal % reduction in Oxidative stress [1] | Average fold GFP induction at maximal response ([2]; CHO 4×ARE-TK-GFP, 24 h) | Lowest dose with toxicity ([2]; CHO ARE reporter assay) | EC50 [2, 5] | Maximal % reduction in Oxidative stress [3] | IC50 [4] | Maximal % reduction in Oxidative stress [4] | Lowest dose with toxicity ([2]; Chinese hamster, 24 h) | EC50 ([2]; Cricetulus griseus, 24 h, read-out: Average EC50, CHO 4×ARE-TK-GFP, GFP induction, 24 h) | EC50 ([2]; Cricetulus griseus, 24 h, read-out: Average EC50) |
| --- | --- | --- | --- | --- | --- | --- | --- | --- | --- | --- | --- | --- | --- | --- | --- | --- |
| CC(=O)CCC(=O)O [levulinc acid, Levulinic acid] | none | None | 2.94 | none | none | – | – | – | – | – | – | – | – | – | – | – |
| CC(=O)O[C@@H]1C[C@H]2C(C)(C)C(=O)C=C[C@]2(C)[C@H]2CC[C@]3(C)C(=CC(=O)O[C@H]3c3ccoc3)[C@@]21C [deoxygedunin] | none | – | – | 10 µM | 10 µM | 2.19 µM | 61% | 1.82 fold | 30 µM | 1.15 µM | 7% | 1.41 µM | 25% | – | – | – |
| S=C=NCc1ccccc1 [Benzyl Isothiocyanate] | none | – | 1.81 | none | none | – | – | – | None | – | – | – | – | – | – | – |
| CC(=O)Oc1ccc(O)cc1 [4 acetoxyphenol] | none | – | 2.78 | none | none | – | – | – | – | – | – | – | – | 100 µM | – | – |
| Euphol acetate | none | – | – | none | none | – | 0% | 2.20 fold | 100 µM | ~99 µM | −43% | 18 µM | 38% | – | – | – |
| COc1ccc2c(c1)OC/C(=C/c1ccc(OC)c(OC)c1)C2=O [sappanone A trimethyl ether] | none | – | – | none | none | – | 27% | 1.99 fold | 100 µM | 3.5 µM | −60% | 0.279 µM | 40% | – | – | – |
| C=CC(C1=CC(=O)C=CC1=O)c1ccccc1 (stereo not drawn) [Dalbergione] | none | – | 2.09 | none | none | – | – | – | – | – | – | – | – | 30 µM | – | – |
| CC(COc1ccccc1)NC(C)C(O)c1ccc(O)cc1 (stereo not drawn) [Isoxsuprine hydrochloride, reference compound] | none | – | 1.52 | none | none | 23 µM | – | – | – | – | – | – | – | 100 µM | 8.7 µM | – |
| COc1cccc(O)c1O [3 methoxycatechol] | 10 µM | – | 3.28 | 0.3 µM | none | – | – | – | – | – | – | – | – | 100 µM | – | – |
| Cc1[nH]c2ccccc2c1CN(C)C [2 methyl gramine] | none | – | – | 3 µM | none | 32 µM | 36% | 2.27 fold | 100 µM | 3 µM | −30% | 11 µM | 36% | – | – | – |
| O=C1C=C2C=C[C@@H]3C[C@@]2(O1)[C@H]1CCCCN31 [Securinine] | none | – | 3 | none | none | 0.645 µM | – | – | 30 µM | – | – | 18.3 µM | – | – | – | 2.12 µM |
| Oc1ccc(O)cc1 [hydroquinone, reference compound] | none | – | 2.95 | none | none | – | – | – | – | – | – | – | – | 100 µM | – | – |
